Patent US11111232B2, “Substituted cyclobutylpyridine and cyclobutylpyrimidine compounds as indoleamine 2,3-dioxygenase (IDO) inhibitors” (MERCK SHARP & DOHME CORP., priority 2017, dated 2021)

Tests used:
IDO1 [1] = target: T1, IDO1 (Homo sapiens, UniProt P14902); experiment: IDO1 HEK293 cellular assay; type: cell-based; details: HEK293 cells transfected with Flag-IDO1 vector, 20-24 hours, fluorescence readout
Experimental: IDO1 HEK293 Cellular Assay
Compounds to be tested were serially diluted in ten 3-fold steps in DMSO starting from 10 mM DMSO stocks. Compound dilutions or DMSO alone were then dispensed from the dilution plate into a Greiner black 384-well assay plate (catalog #781086) using an Echo 550 acoustic liquid handler (Labcyte).
HEK293 cell pellets were resuspended to 5×10^5 cells/mL in complete HEK293 culture media (89% DMEM, 10% FBS, 1% penicillin/streptomycin). Suspended cells (2 mL) were dispensed into each well of a 6-well Corning plate (Catalog # 3516). Cells were allowed to attach and were incubated for 20 hours at 37° C. in a 5% CO2 incubator. Flag-IDO1 vector (Genscript True ORF Gold, 2 ug) in 150 uL of Opti-MEM medium was added to each well of a Corning 24 well plate (Cat # 3527) and incubated for 5 minutes at room temperature. To each well of the 24-well plate was added […] Lipofectamine 2000 (Gibco) and the plate incubated at room temperature for 20-30 minutes. To each well of attached cells in the 6-well plate, […] of the transfection mix from the 24-well plate was gently added to each well and IDO1 protein was allowed to express for 24-30 hours at 37 degrees Celsius in a 5% CO2 incubator.
Media was removed from the cells which were then washed with 2 mL Dulbecco's phosphate-buffered saline (DPBS). After removal of DPBS, 0.5 mL of TrypLE (Gibco) was added and incubated at 5 minutes until cells lift from the surface of the wells. Complete HEK293 culture media (4 mL) was added to each well and cells were collected and pooled into a conical tube. Cells were pelleted at 200×g for 5 minutes and resuspended in an equal volume of complete DMEM medium. Cells were diluted to 4×10^5 cells per mL in complete HEK293 media. L-Tryptophan was added to added to give a final concentration of […]. The diluted transfected cells […] or nontransfected cells […] were dispensed into wells of Greiner black 384-well assay plates (catalog #781086) containing previously diluted compounds. The plate is briefly mixed and centrifuged at 200×g for 10 seconds to collect cells at the bottom of the plate. Plates were covered and incubated for 20-24 hours at 37 degrees C. in a 5% CO2 incubator. Afterwards […] of 0.5 M methyl isonipecotate in dimethyl sulfoxide was added to each well, mixed, sealed, and centrifuged at 500 rpm for 10 seconds. Plates were incubated at 37 degrees in a 5% CO2 incubator overnight to develop fluoresence. The plates are allowed to cool and then centrifuged for 1 minute at 1000×g. The resulting fluoresence was measured in an Envision plate reader (Perkin Elmer) with a 400/25 nm excitation filter and an 510/20 nm emission filter.
The fluoresence intensity of each well was corrected for the background observed in wells with untransfected cells and was expressed as a fraction of the intensity observed in wells of IDO1 transfected cells and DMSO only. Potencies were calculated by linear least squares fit to the four parameter logistic IC50 equation.

IDO1 [2] = target: T1, IDO1; experiment: IDO1 human whole blood assay; type: cell-based; set-up: Human whole blood was drawn in sodium heparin coated tubes from healthy internal donors; from tissue; host or cells: human whole blood from healthy donors, stimulated with LPS and IFNγ; details: LPS and IFNγ 100 ng/mL, 18 h, kynurenine by LC/MS/MS
Experimental: IDO1Human Whole Blood Assay
Compounds to be tested were serially diluted in ten 3-fold steps in DMSO starting from 10 mM. […] LPS and IFNγ was prepared in RPMI to a 10× of final conc. (1000 ng/mL), final concentration is 100 ng/mL.
Human whole blood was drawn in sodium heparin coated tubes from healthy internal donors. […] of blood was transferred to each of the wells of a v-bottom 96 well plate. […] of compound was transferred from intermediate dilution plate, and incubated for 15 min. 30 μL from stimulants was then transferred to blood and mixed thoroughly. Plate was covered with breathable membrane and incubated at 37° C. for overnight (18 h).
On day 2 isotope labeled standard of kynurenine and tryptophan was made in water at 10× concentration and […] was added to the blood at […] final concentration. The assay plates were centrifuged at 300×G for 10 min with no brake to separate plasma from red blood cells. […] of plasma samples was removed without disturbing red blood cells. Plasma was diluted with RPMI in 1:1 ratio and proteins were precipitated out with two volume of Acetonitrile. The plates was centrifuged at 4000×G for 60 min. 20 mL of supernatant was carefully transferred to a 384 well plate contain 40 mL of 0.1% formic acid in water and analyzed by LC/MS/MS.
LC/MS/MS analyses were performed using Thermo Fisher's LX4-TSQ Quantum Ultra system. This system consists of four Agilent binary high-performance liquid chromatography (HPLC) pumps and a TSQ Quantum Ultra triple quadruple MS/MS instrument. For each sample, […] were injected onto an Atlantis T3 column (2.1 mm×150 mm, […]) from Waters. The mobile phase gradient pumped at 0.8 mL/min was used to elute the analytes from the column at 25° C. […] Mobile phase A consisted of 0.1% formic acid in water. Mobile phase B consisted of 0.1% of formic acid in acetonitrile. Data was acquired in positive mode using a HESI interface. The operational parameters for the TSQ Quantum Ultra instrument were a spray voltage of 4000 V, capillary temperature of 380° C., vaporizer temperature 400° C., shealth gas 60 arbitrary units, Aux gas 20 arbitrary units, tube lens 85 and collision gas 1.2 mTorr. […] The peak area was integrated by Xcalibur Quan software. The ratios between the kynurenine generated in the reaction and 2D6-Kynurenine spiked-in internal standard were used to generate percentage inhibition and IC50 values. Compounds were titrated and IC50′s were calculated by 4 parameter sigmoidal curve fitting formula.

T1 sequence (P14902 whole entry): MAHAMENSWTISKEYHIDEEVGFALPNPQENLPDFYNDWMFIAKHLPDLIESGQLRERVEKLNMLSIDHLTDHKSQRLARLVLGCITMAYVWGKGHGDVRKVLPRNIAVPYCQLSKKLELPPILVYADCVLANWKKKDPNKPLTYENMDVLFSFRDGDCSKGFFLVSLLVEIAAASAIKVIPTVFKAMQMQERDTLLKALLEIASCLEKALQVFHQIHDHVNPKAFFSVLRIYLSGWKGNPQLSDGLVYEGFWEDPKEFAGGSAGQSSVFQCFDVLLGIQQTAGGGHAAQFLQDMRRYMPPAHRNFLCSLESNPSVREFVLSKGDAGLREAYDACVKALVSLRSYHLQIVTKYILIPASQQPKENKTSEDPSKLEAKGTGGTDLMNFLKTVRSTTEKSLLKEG

In the case of `O=C(Nc1ccc(C2(C(=O)Nc3ccc(F)cc3)CCC2)cn1)C1CCCCC1` [Example 15, N-(5-{1-[(4-fluorophenyl)carbamoyl]cyclobutyl}pyridin-2-yl) cyclohexanecarboxamide], the IC50 (IDO1 [1]) is reported as 7 nM and the IC50 (IDO1 [2]) is reported as 2010 nM.
